Measurements from US20250066351A1, “PYRAZOLO[1,5-A]PYRIDIN-2,3-YL AMIDES AS KV7 CHANNEL ACTIVATORS” (Biohaven Therapeutics Ltd., priority 2022, published 2025).

Biological target: T1, hKv7.2/7.3 (Homo sapiens, UniProt O43525+O43526)
T1 construct: host or cells: HEK cells, tetracycline-inducible expression
Assay: Kv7.2/7.3 Activation Assay, QPatch planar patch-clamp single concentration screen
Format: cell-based
Details: increase in current over baseline, Kv7.2/Kv7.3 co-expressing HEK cells, compound concentration 3 μM, steady-state current at end of 2 s pulse to −30 mV
Protocol: The ability of compounds to potentiate K-currents in Kv7.2/7.3 containing HEK cells was assessed using planar patch-clamp on the QPatch automated screening platform.
Cell Line: The hKv7.2/7.3 cell line was obtained from Chantest (Cleveland, OH 44128) cat. #CT6147. These HEK cells will express the Kv7.2/7.3 ion channels when induced.
Cell Culture: Cells were maintained in a media containing DMEM/F12; 50/50 (GIBCO cat. #11330), 10% Fetal Bovine Serum (FBS) (GIBCO cat. #26140), 100 units/mL Penicillin-Streptomycin (GIBCO cat. #15140), 0.005 mg/mL Blasticidin (INVIVOGEN cat. #ant-bl-1), 0.5 mg/mL Geneticin (GIBCO cat. #10131), 0.1 mg/mL Zeocin (GIBCO cat. #R25001). Cells used in the electrophysiology assay were maintained in a media without Blasticidin, Geneticin and Zeocin for 2 days and channel expression was induced by adding tetracycline (BIOLINE cat. #BIO-87030) at a final concentration of […]. Cells were grown in T-175 flask to ˜75% confluency. Currents were recorded 24 hours after channel induction.
Compound Plates: Test compounds were prepared by performing serial dilutions on a Biomek NX^P (BECKMAN COULTER). Final dilutions were made in external recording solution with a final DMSO concentration of 0.1% DMSO. For single concentration screens each plate had 10 μM retigabine as a positive control and 0.1% DMSO as a negative control.
Electrophysiology: On the day of the experiment cells were washed with Hank's Balanced Salt Solution (HBBS) (GIBCO cat. #14175) and harvested with Tryple (GIBCO cat. #12604). Cells were then centrifuged at 2000 rpm for 5 minutes and resuspended in CHO—S-SFM (GIBCO cat. #12052) at […]. Cells were stirred for 30 minutes before experiments were started. External recording solution contained (in mM): NaCl (145), KCl (4), CaCl2 (2), MgCl2 (1), HEPES (10) and Glucose (10); pH was adjusted to 7.4 with NaOH and the osmolarity was adjusted to 300-305 mOsM with sucrose if necessary. Internal solution contained (in mM): KCl (125), KF (10), EGTA (5), Na2ATP (5), MgCl2 (3.2), HEPES (5); pH was adjusted to 7.2 with KOH and the osmolarity was adjusted to 298-302 mOsM with sucrose.
Potassium channel activity was measured on the QPatch HTX (Sophion Bioscience) using QPlates with 48-wells/plate. Each cell was taken as an independent experiment and only one compound was tested per well. Potassium channel activity was elicited by holding at −80 mV and stepping to −30 mV for 2 s followed by a 100 ms pulse to −120 mV.
Single concentration screen: Baseline conditions were obtained by recording 5 sweeps in the external solution only, this was repeated for three applications of the external solution. The effect of test compounds on elicited current was then assessed by recording 5 sweeps in the presence of a 3 μM compound solution. The steady-state current at the end of the 2 s pulse to −30 mV was measured to determine the fold increase from baseline.

QPatch Kv7.2/7.3 Activity	SMILES
+ (2.0-3.99 (+))	CC(C)(C)CC(=O)Nc1nn2ccccc2c1C1CCC1 [Example 1, N-(3-cyclobutylpyrazolo[1,5-a]pyridin-2-yl)-3,3-dimethylbutanamide]
+ (2.0-3.99 (+))	CC(C)(C)CC(=O)Nc1nn2ccc(C(F)(F)F)cc2c1C1CCC1 [Example 2, N-(3-cyclobutyl-5-(trifluoromethyl)pyrazolo [1,5-a]pyridin-2-yl)-3,3-dimethylbutanamide]
+/− (1.2-1.99-fold (+/−))	O=C(CC(C(F)(F)F)C(F)(F)F)Nc1nn2ccccc2c1C1CCC1 [Example 4, N-(3-cyclobutylpyrazolo[1,5-a]pyridin-2-yl)-4,4,4-trifluoro-3-(trifluoromethyl) butanamide]
+/− (1.2-1.99-fold (+/−))	O=C(CC(C(F)(F)F)C(F)(F)F)Nc1nn2ccc(C(F)(F)F)cc2c1C1CCC1 [Example 5, N-(3-cyclobutyl-5-(trifluoromethyl)pyrazolo [1,5-a]pyridin-2-yl)-4,4,4-trifluoro-3-(trifluoromethyl) butanamide]
+ (2.0-3.99 (+))	CC(C)[C@H](C)C(=O)Nc1nn2ccccc2c1C1CCC1 [Example 6, (S)-N-(3-cyclobutylpyrazolo[1,5-a]pyridin-2-yl)-2,3-dimethylbutanamide]
+ (2.0-3.99 (+))	CC(C)[C@H](C)C(=O)Nc1nn2ccc(C(F)(F)F)cc2c1C1CCC1 [Example 7, (S)-N-(3-cyclobutyl-5-(trifluoromethyl)pyrazolo [1,5-a]pyridin-2-yl)-2,3-dimethylbutanamide]
+ (2.0-3.99 (+))	CC(C)[C@H](C)C(=O)Nc1nn2ccc(C#N)cc2c1C1CCC1 [Example 8, (S)-N-(5-cyano-3-cyclobutylpyrazolo[1,5-a]pyridin-2-yl)-2,3-dimethylbutanamide]
− (<1.2-fold (−))	CC(C)(O)CC(=O)Nc1nn2ccccc2c1C1CCC1 [Example 9, N-(3-cyclobutylpyrazolo[1,5-a]pyridin-2-yl)-3-hydroxy-3-methylbutanamide]
+ (2.0-3.99 (+))	CC(C)(O)CC(=O)Nc1nn2ccc(C(F)(F)F)cc2c1C1CCC1 [Example 10, N-(3-cyclobutyl-5-(trifluoromethyl)pyrazolo [1,5-a]pyridin-2-yl)-3-hydroxy-3-methylbutanamide]
+/− (1.2-1.99-fold (+/−))	CC(C)(O)CC(=O)Nc1nn2ccc(C#N)cc2c1C1CCC1 [Example 11, N-(5-cyano-3-cyclobutylpyrazolo[1,5-a]pyridin-2-yl)-3-hydroxy-3-methylbutanamide]
+ (2.0-3.99 (+))	CC(C)(O)CC(=O)Nc1nn2ccc(Br)cc2c1C1CCC1 [Example 12, N-(5-bromo-3-cyclobutylpyrazolo[1,5-a]pyridin-2-yl)-3-hydroxy-3-methylbutanamide]
+ (2.0-3.99 (+))	CC(C)(O)CC(=O)Nc1nn2ccc(C(F)(F)F)cc2c1-c1ccccc1 [Example 13, 3-hydroxy-3-methyl-N-(3-phenyl-5-(trifluoromethyl)pyrazolo [1,5-a]pyridin-2-yl)butanamide]
+/− (1.2-1.99-fold (+/−))	COc1ccn2nc(NC(=O)CC(C)(C)O)c(C3CCC3)c2c1 [Example 16, N-(3-cyclobutyl-5-methoxypyrazolo[1,5-a]pyridin-2-yl)-3-hydroxy-3-methylbutanamide]
+ (2.0-3.99 (+))	CC(C)(O)CC(=O)Nc1nn2ccc(C(F)(F)F)cc2c1-c1ccc(Cl)cc1 [Example 17, N-(3-(4-chlorophenyl)-5-(trifluoromethyl)pyrazolo [1,5-a]pyridin-2-yl)-3-hydroxy-3-methylbutanamide]
+ (2.0-3.99 (+))	Cc1ccc(-c2c(NC(=O)CC(C)(C)O)nn3ccc(C(F)(F)F)cc23)cc1 [Example 18, 3-hydroxy-3-methyl-N-(3-(p-tolyl)-5-(trifluoromethyl)pyrazolo [1,5-a]pyridin-2-yl)butanamide]
+ (2.0-3.99 (+))	CC(C)(O)CC(=O)Nc1nn2c(Br)cccc2c1C1CCC1 [Example 19, N-(7-bromo-3-cyclobutylpyrazolo[1,5-a]pyridin-2-yl)-3-hydroxy-3-methylbutanamide]
+ (2.0-3.99 (+))	O=C(CC1(O)CCCC1)Nc1nn2ccc(Cl)cc2c1C1CCC1 [Example 20, N-(5-chloro-3-cyclobutylpyrazolo[1,5-a]pyridin-2-yl)-2-(1-hydroxycyclopentyl) acetamide]
+ (2.0-3.99 (+))	O=C(CC1(O)CCCC1)Nc1nn2ccc(C(F)(F)F)cc2c1C1CCC1 [Example 21, N-(3-cyclobutyl-5-(trifluoromethyl)pyrazolo [1,5-a]pyridin-2-yl)-2-(1-hydroxycyclopentyl) acetamide]
+ (2.0-3.99 (+))	O=C(CC1(O)CCC1)Nc1nn2ccc(C(F)(F)F)cc2c1-c1ccc(F)cc1 [Example 22, N-(3-(4-fluorophenyl)-5-(trifluoromethyl)pyrazolo [1,5-a]pyridin-2-yl)-2-(1-hydroxycyclobutyl) acetamide]
+ (2.0-3.99 (+))	CC(O)(CC(=O)Nc1nn2ccc(C(F)(F)F)cc2c1C1CCC1)C1CCC1 (centres unmarked) [Example 23, 3-cyclobutyl-N-(3-cyclobutyl-5-(trifluoromethyl)pyrazolo [1,5-a]pyridin-2-yl)-3-hydroxybutanamide]
+ (2.0-3.99 (+))	COc1ccn2nc(NC(=O)CC(C)(O)C3CCCC3)c(C3CCC3)c2c1 (centres unmarked) [Example 26, N-(3-cyclobutyl-5-methoxypyrazolo[1,5-a]pyridin-2-yl)-3-cyclopentyl-3-hydroxybutanamide]
+ (2.0-3.99 (+))	CC(O)(CC(=O)Nc1nn2ccc(C(F)(F)F)cc2c1C1CCC1)c1ccccc1 (centres unmarked) [Example 27, N-(3-cyclobutyl-5-(trifluoromethyl)pyrazolo [1,5-a]pyridin-2-yl)-3-hydroxy-3-phenylbutanamide]
+/− (1.2-1.99-fold (+/−))	CC(O)(CC(=O)Nc1nn2ccc(C#N)cc2c1C1CCC1)c1ccccc1 (centres unmarked) [Example 28, N-(5-cyano-3-cyclobutylpyrazolo[1,5-a]pyridin-2-yl)-3-hydroxy-3-phenylbutanamide]
++ (4.0-5.99 (++))	C[C@](O)(CC(=O)Nc1nn2ccc(C(F)(F)F)cc2c1C1CCC1)c1ccccc1 [Example 29, (S)-N-(3-cyclobutyl-5-(trifluoromethyl)pyrazolo [1,5-a]pyridin-2-yl)-3-hydroxy-3-phenylbutanamide]
+ (2.0-3.99 (+))	C[C@](O)(CC(=O)Nc1nn2ccc(C#N)cc2c1C1CCC1)c1ccccc1 [Example 30, (S)-N-(5-cyano-3-cyclobutylpyrazolo[1,5-a]pyridin-2-yl)-3-hydroxy-3-phenylbutanamide]
+ (2.0-3.99 (+))	C[C@](O)(CC(=O)Nc1nn2ccc(Cl)cc2c1C1CCC1)c1ccccc1 [Example 31, (S)-N-(5-chloro-3-cyclobutylpyrazolo[1,5-a]pyridin-2-yl)-3-hydroxy-3-phenylbutanamide]
+ (2.0-3.99 (+))	C[C@](O)(CC(=O)Nc1nn2ccc(C(F)(F)F)cc2c1-c1ccc(F)cc1)c1ccccc1 [Example 32, (S)-N-(3-(4-fluorophenyl)-5-(trifluoromethyl)pyrazolo [1,5-a]pyridin-2-yl)-3-hydroxy-3-phenylbutanamide]
+ (2.0-3.99 (+))	C[C@](O)(CC(=O)Nc1nn2c(Br)cccc2c1C1CCC1)c1ccccc1 [Example 33, (S)-N-(7-bromo-3-cyclobutylpyrazolo[1,5-a]pyridin-2-yl)-3-hydroxy-3-phenylbutanamide]
− (<1.2-fold (−))	C[C@@](O)(CC(=O)Nc1nn2ccc(C(F)(F)F)cc2c1C1CCC1)c1ccccc1 [Example 34, (R)-N-(3-cyclobutyl-5-(trifluoromethyl)pyrazolo [1,5-a]pyridin-2-yl)-3-hydroxy-3-phenylbutanamide]
